Patent US20230399312A1, “SUBSTITUTED PYRIMIDINES AND METHODS OF USE” (THERAVANCE BIOPHARMA R&D IP, LLC, priority 2020, published 2023)

How the values were obtained:
[1] = tested on: TGF-β-stimulated SMAD3 phosphorylation in BEAS-2B cells; experiment: Cellular ALK5 potency assay, inhibition of TGF-β stimulated pSMAD3 formation in BEAS-2B cells; format: cell-based; conditions: Homo sapiens, pSMAD3, TGF-β 10 ng/mL, read-out: BEAS2B pIC50 (converted)
How it was run: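 Human lung epithelial BEAS-2B cells were preincubated 1 h at 37 °C with compound in HBSS/HEPES/1% BSA, then stimulated 30 min with 10 ng/mL TGF-β. pSMAD3 in lysates was quantified by AlphaLISA relative to untreated stimulated cells; reported as pIC50.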

[2] = target: T1, recombinant human ALK5 (TGF-βR1) protein (Homo sapiens, UniProt P36897); experiment: Biochemical ALK5 (TGF-βR1) assay to measure pKi (LANCE Ultra ULight kinase assay); conditions: apparent pKi, converted from pIC50 by Cheng-Prusoff
T1 construct: purchased Life Technologies PR9075A
T1 sequence (P36897 34-503): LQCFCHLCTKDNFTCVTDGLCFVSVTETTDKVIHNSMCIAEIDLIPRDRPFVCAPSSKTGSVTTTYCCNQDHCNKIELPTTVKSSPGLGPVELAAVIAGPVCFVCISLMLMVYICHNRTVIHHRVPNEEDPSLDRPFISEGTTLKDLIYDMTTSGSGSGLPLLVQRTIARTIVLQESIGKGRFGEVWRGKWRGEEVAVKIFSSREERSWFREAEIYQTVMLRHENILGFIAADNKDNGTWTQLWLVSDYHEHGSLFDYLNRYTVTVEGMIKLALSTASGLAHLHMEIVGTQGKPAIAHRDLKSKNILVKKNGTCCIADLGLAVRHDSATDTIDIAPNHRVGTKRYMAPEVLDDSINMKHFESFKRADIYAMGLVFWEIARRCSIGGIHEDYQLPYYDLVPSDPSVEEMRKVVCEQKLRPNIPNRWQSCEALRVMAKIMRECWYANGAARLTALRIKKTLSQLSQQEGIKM
How it was run: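 Read-out was LANCE Ultra TR-FRET with a europium anti-phospho-Topo IIα Thr1342 antibody after EDTA quench. Kinase reaction ran 60 min at 37 °C with ATP added from a 125 μM 5× stock, after 60 min compound–enzyme equilibration at room temperature. Values are pKi from Cheng-Prusoff conversion of fitted pIC50.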

Structure (SMILES) | IC50 [1] | Ki [2]
Cc1cccc(-c2nccc(Nc3ccnc(Nc4ccc(Cl)c(CO)c4)n3)n2)n1 [Compound 295, [2-chloro-5-[[4-[[2-(6-methyl-2-pyridyl)pyrimidin-4-yl]amino]pyrimidin-2-yl]amino]phenyl]methanol] | 25.1 to 158 nM | 0.0398 to 0.316 nM
Cc1cccc(-c2nccc(Nc3ccnc(Nc4ccc(NS(=O)(=O)C5CNC5)cc4)n3)n2)n1 [Compound 296, N-[4-[[4-[[2-(6-methyl-2-pyridyl)pyrimidin-4-yl]amino]pyrimidin-2-yl]amino]phenyl]azetidine-3-sulfonamide] | 200 to 1260 nM | 0.398 to 3.16 nM
Cc1cccc(-c2nccc(Nc3ccnc(Nc4ccc(CN5CCC(C(=O)O[C@H]6CCN(C)C6)CC5)cc4)n3)n2)n1 [Compound 297, [(3S)-1-methylpyrrolidin-3-yl] 1-[[4-[[4-[[2-(6-methyl-2-pyridyl)pyrimidin-4-yl]amino]pyrimidin-2-yl]amino]phenyl]methyl] piperidine-4-carboxylate] | 200 to 1260 nM | 0.0398 to 0.316 nM
Cc1cccc(-c2nccc(Nc3ccnc(Nc4cccc(NC(=O)N5CCNCC5)c4)n3)n2)n1 [Compound 298, N-[3-[[4-[[2-(6-methyl-2-pyridyl)pyrimidin-4-yl]amino]pyrimidin-2-yl]amino]phenyl]piperazine-1-carboxamide] | 25.1 to 158 nM | 0.0398 to 0.316 nM
Cc1cccc(-c2nccc(Nc3ccnc(Nc4cccc(NC(=O)C5(O)CNC5)c4)n3)n2)n1 [Compound 299, 3-hydroxy-N-[3-[[4-[[2-(6-methyl-2-pyridyl)pyrimidin-4-yl]amino]pyrimidin-2-yl]amino]phenyl]azetidine-3-carboxamide] | 25.1 to 158 nM | 0.0398 to 0.316 nM
Cc1cccc(-c2nccc(Nc3ccnc(Nc4ccc(N5CCOCC5)c(F)c4)n3)n2)n1 [Compound 300, N2-(3-fluoro-4-morpholino-phenyl)-N4-[2-(6-methyl-2-pyridyl)pyrimidin-4-yl]pyrimidine-2,4-diamine] | 25.1 to 158 nM | 0.0398 to 0.316 nM
Cc1cccc(-c2nccc(Nc3ccnc(Nc4ccc(CN5CCN(CCO)CC5)cc4)n3)n2)n1 [Compound 301, 2-[4-[[4-[[4-[[2-(6-methyl-2-pyridyl)pyrimidin-4-yl]amino]pyrimidin-2-yl]amino]phenyl]methyl]piperazin-1-yl]ethanol] | 25.1 to 158 nM | 0.0398 to 0.316 nM
Cc1cccc(-c2nccc(Nc3ccnc(Nc4ccc(N5CCC(CN)CC5)cc4)n3)n2)n1 [Compound 302, N2-[4-[4-(aminomethyl)-1-piperidyl]phenyl]-N4-[2-(6-methyl-2-pyridyl)pyrimidin-4-yl]pyrimidine-2,4-diamine] | 25.1 to 158 nM | 0.0398 to 0.316 nM
Cc1cccc(-c2nccc(Nc3ccnc(Nc4ccc(NS(=O)(=O)N5CCN(C)CC5)cc4)n3)n2)n1 [Compound 303, 4-methyl-N-[4-[[4-[[2-(6-methyl-2-pyridyl)pyrimidin-4-yl]amino]pyrimidin-2-yl]amino]phenyl]piperazine-1-sulfonamide] | 25.1 to 158 nM | 0.398 to 3.16 nM
CCOC(=O)Cc1ccc(Nc2nccc(Nc3ccnc(-c4cccc(C)n4)n3)n2)cc1 [Compound 304, ethyl 2-[4-[[4-[[2-(6-methyl-2-pyridyl)pyrimidin-4-yl]amino]pyrimidin-2-yl]amino]phenyl]acetate] | 25.1 to 158 nM | 0.398 to 3.16 nM
Cc1cccc(-c2nccc(Nc3ccnc(Nc4ccc(CN5CCN(C)CC5)cc4)n3)n2)n1 [Compound 305, N2-[4-[(4-methylpiperazin-1-yl)methyl]phenyl]-N4-[2-(6-methyl-2-pyridyl)pyrimidin-4-yl]pyrimidine-2,4-diamine] | 25.1 to 158 nM | 0.0398 to 0.316 nM
Cc1cccc(-c2nccc(Nc3ccnc(Nc4cccc(S(=O)(=O)N5CCNCC5)c4)n3)n2)n1 [Compound 306, N4-[2-(6-methyl-2-pyridyl)pyrimidin-4-yl]-N2-(3-piperazin-1-ylsulfonylphenyl)pyrimidine-2,4-diamine] | 25.1 to 158 nM | 3.98 to 31.6 nM
COC(=O)[C@@H]1CN(c2ccc(Nc3nccc(Nc4ccnc(-c5cccc(C)n5)n4)n3)cc2)CCN1 [Compound 307, methyl (2S)-4-[4-[[4-[[2-(6-methyl-2-pyridyl)pyrimidin-4-yl]amino]pyrimidin-2-yl]amino]phenyl]piperazine-2-carboxylate] | 25.1 to 158 nM | 0.0398 to 0.316 nM
Cc1cccc(-c2nccc(Nc3ccnc(Nc4cccc(C(=O)O[C@H]5CCN(C)C5)c4)n3)n2)n1 [Compound 308, [(3S)-1-methylpyrrolidin-3-yl] 3-[[4-[[2-(6-methyl-2-pyridyl)pyrimidin-4-yl]amino]pyrimidin-2-yl]amino]benzoate] | 200 to 1260 nM | 0.398 to 3.16 nM
Cc1cccc(-c2nccc(Nc3ccnc(Nc4ccc(NCC5(CO)CNC5)cc4)n3)n2)n1 [Compound 310, [3-[[4-[[4-[[2-(6-methyl-2-pyridyl)pyrimidin-4-yl]amino]pyrimidin-2-yl]amino]anilino]methyl]azetidin-3-yl] methanol] | 25.1 to 158 nM | 0.398 to 3.16 nM
Cc1cccc(-c2nccc(Nc3ccnc(Nc4ccc(C)c(CN5CCN(C)CC5)c4)n3)n2)n1 [Compound 311, N2-[4-methyl-3-[(4-methylpiperazin-1-yl)methyl]phenyl]-N4-[2-(6-methyl-2-pyridyl)pyrimidin-4-yl]pyrimidine-2,4-diamine] | 25.1 to 158 nM | 0.0398 to 0.316 nM
COC(=O)c1cc(Nc2nccc(Nc3ccnc(-c4cccc(C)n4)n3)n2)ccc1N1CCNCC1 [Compound 312, methyl 5-[[4-[[2-(6-methyl-2-pyridyl)pyrimidin-4-yl]amino]pyrimidin-2-yl]amino]-2-piperazin-1-yl-benzoate] | 25.1 to 158 nM | 0.0398 to 0.316 nM
Cc1cccc(-c2nccc(Nc3ccnc(Nc4ccc(CN5CCC(C(=O)O[C@@H]6CCNC6)CC5)cc4)n3)n2)n1 [Compound 313, [(3R)-pyrrolidin-3-yl] 1-[[4-[[4-[[2-(6-methyl-2-pyridyl)pyrimidin-4-yl]amino]pyrimidin-2-yl]amino]phenyl]methyl] piperidine-4-carboxylate] | 25.1 to 158 nM | 0.0398 to 0.316 nM
Fc1cc(F)c(-c2nccc(Nc3ccnc(Nc4ccc(N5CCC(N6CCCC6)CC5)cc4)n3)n2)cc1Cl [Compound 314, N4-[2-(5-chloro-2,4-difluoro-phenyl)pyrimidin-4-yl]-N2-[4-(4-pyrrolidin-1-yl-1-piperidyl)phenyl]pyrimidine-2,4-diamine] | 25.1 to 158 nM | 0.0398 to 0.316 nM
Cc1cccc(-c2nccc(Nc3ccnc(Nc4cccc(N)c4)n3)n2)n1 [Compound 315, N2-(3-aminophenyl)-N4-[2-(6-methyl-2-pyridyl)pyrimidin-4-yl]pyrimidine-2,4-diamine] | ≤ 20 nM | 0.0398 to 0.316 nM
CC(=O)Nc1ccc(Nc2nccc(Nc3ccnc(-c4cccc(C)n4)n3)n2)cc1 [Compound 316, N-[4-[[4-[[2-(6-methyl-2-pyridyl)pyrimidin-4-yl]amino]pyrimidin-2-yl]amino]phenyl]acetamide] | 25.1 to 158 nM | 0.398 to 3.16 nM
Cc1cccc(-c2nccc(Nc3ccnc(Nc4ccc(C(=O)N5CCN(C(C)C)CC5)cc4)n3)n2)n1 [Compound 317, (4-isopropylpiperazin-1-yl)-[4-[[4-[[2-(6-methyl-2-pyridyl)pyrimidin-4-yl]amino]pyrimidin-2-yl]amino]phenyl]methanone] | 25.1 to 158 nM | 0.0398 to 0.316 nM
